This is an account of results in ChEMBL document CHEMBL3399964, “Nine new diterpenes from the leaves of plantation-grown Cunninghamia lanceolata” (2015).

Each structure is given as a SMILES string. Where a name gives a salt, the structure may show the parent alone.

A short description of this test: Growth inhibition of human PC3 cells by colorimetric MTT assay. It is filed as functional. Particulars: PC-3. In general terms: Tetrazolium assays rely on reduction of a dye to a coloured formazan, in cell work by metabolically active cells.
Take `COc1cccc2c1C(=O)c1c(O)c3c(c(O)c1C2=O)C[C@@](O)(C(=O)CO)C[C@@H]3O[C@H]1C[C@H](N)[C@H](O)[C@H](C)O1` [DOXORUBICIN HYDROCHLORIDE]: the GI50 (as a rule, the concentration at which growth is held to half of that of the control) was 1.1 µM.

As to `C=CC(=C)[C@H](C[C@H]1C(=C)CC[C@@H]2[C@]1(C)CCC[C@@]2(C)C(=O)O)OO`, the GI50 was greater than 100 µM.

`C=CC(=C)[C@@H](C[C@H]1C(=C)CC[C@H]2[C@](C)(CO)CCC[C@]12C)OO` returned a GI50 of 34.4 µM.

Compound `C=CC(=C)CC[C@@H]1[C@@]2(C)CCC[C@](C)(COC(=O)/C=C/c3ccccc3)[C@@H]2CC[C@@]1(C)O` displayed a GI50 of 10.6 µM.

With `C=C/C(C)=C/[C@@H](OC(C)=O)[C@H]1C(=C)CC[C@@H]2[C@]1(C)CCC[C@@]2(C)C(=O)OC`, the GI50 is 58.3 µM.

Compound `CC(C)c1cc2c3c(c1O)O[C@@H]1CCC(C)(C)[C@H](CC2)[C@@]31C` displayed a GI50 of 27.4 µM.

In turn, `C=C/C(C)=C/C[C@H]1C(=C)CC[C@@H]2[C@]1(C)CCC[C@@]2(C)C(=O)O` showed a GI50 greater than 100 µM.

Take `C=C/C(C)=C/[C@@H](OC(C)=O)[C@H]1C(=C)CC[C@@H]2[C@]1(C)CCC[C@@]2(C)C(=O)O`: it took 57.2 µM to inhibit growth by half (GI50).

As to `Cc1cc2c(C(C)C)ccc(C)c2cc1O`, the GI50 worked out at 54 µM.

The compound `C=CC(=C)CC[C@@H]1[C@@]2(C)CCC[C@](C)(COC(=O)/C=C\c3ccccc3)[C@@H]2CC[C@@]1(C)O` gave a concentration for 50% growth inhibition (GI50) greater than 100 µM.

In turn, `COc1ccc(-c2cc(=O)c3c(O)cc(O)c(-c4cc(-c5cc(=O)c6c(O)cc(O)cc6o5)ccc4O)c3o2)cc1` [PODOCARPUSFLAVONE A] returned a GI50 greater than 100 µM.

For `C=CC(=C)[C@@H](C[C@H]1C(=C)CC[C@@H]2[C@]1(C)CCC[C@@]2(C)C(=O)O)OO`, the GI50 came to 38 µM.

In turn, `C=C/C(C)=C/C[C@H]1C(=C)CC[C@H]2[C@](C)(CO)CCC[C@]12C` displayed a GI50 of 35 µM.

In turn, `COc1cc(O)c2c(=O)cc(-c3ccc(O)c(-c4c(O)cc(O)c5c(=O)cc(-c6ccc(O)cc6)oc45)c3)oc2c1` [SEQUOIAFLAVONE] had a GI50 of 43.3 µM.

In the case of `C=CC(=C)[C@H](C[C@H]1C(=C)CC[C@H]2[C@](C)(CO)CCC[C@]12C)OO`, the GI50 is 50.9 µM.
